From patent publication US20240270821A1, “GIP/GLP1/GCG TRI-RECEPTOR AGONISTS AND USES THEREOF” (priority 2023, published 2024)
Where two headings read alike, the source gives them in different places. Starred links: 1 amine or outer side, 2 acyl side, 3 side chain; linkers in the order of their positions; H or OH if unused. Non-standard residues stand in square brackets, D forms with d. Groups on a side chain read outwards from the residue. *: point of attachment. C20 diacid = O=C(O)CCCCCCCCCCCCCCCCCCC(=O)*; C18 diacid = O=C(O)CCCCCCCCCCCCCCCCC(=O)*; Phe(4-CN) = N#Cc1ccc(C[C@H](N)C(=O)O)cc1; αMePhe(2-F) = C[C@](N)(Cc1ccccc1F)C(=O)O; γGlu = O=C(O)[C@H](CCC(=O)[*:2])N[*:1]; αMe4Pal = C[C@](N)(Cc1ccncc1)C(=O)O; αMeY = C[C@](N)(Cc1ccc(O)cc1)C(=O)O; 4Pal = N[C@@H](Cc1ccncc1)C(=O)O; αMeL = CC(C)C[C@](C)(N)C(=O)O; αMeS = C[C@](N)(CO)C(=O)O; Orn = NCCC[C@H](N)C(=O)O; AEEA = NCCOCCOCC(=O)O; Aib = CC(C)(N)C(=O)O

What was measured:
Assay type in all cases: cell-based
[1] = biological target: T1, hGIPR (Homo sapiens, UniProt P48546); test: Functional cAMP activation in the presence of 0.1% casein (no HSA); conditions: read-out: Relative cAMP EC50, hGIPR;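 also: intracellular cAMP rise after 30 min at 37 °C read by HTRF against a standard curve, scaled between buffer alone (0%) and top control ligand concentration (100%), four-parameter fit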
T1 sequence (P48546 22-466): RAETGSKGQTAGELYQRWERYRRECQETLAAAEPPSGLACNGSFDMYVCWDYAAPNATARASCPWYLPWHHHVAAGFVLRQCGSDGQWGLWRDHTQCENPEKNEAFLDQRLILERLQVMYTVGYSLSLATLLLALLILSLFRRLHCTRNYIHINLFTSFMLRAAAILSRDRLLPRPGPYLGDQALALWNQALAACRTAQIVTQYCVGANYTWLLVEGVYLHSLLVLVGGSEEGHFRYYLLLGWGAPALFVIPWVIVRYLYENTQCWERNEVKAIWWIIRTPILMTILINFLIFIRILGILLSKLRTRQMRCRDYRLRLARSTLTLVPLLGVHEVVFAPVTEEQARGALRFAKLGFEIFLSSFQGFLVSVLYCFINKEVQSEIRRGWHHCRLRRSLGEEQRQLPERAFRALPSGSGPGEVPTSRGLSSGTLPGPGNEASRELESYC

[2] = biological target: T2, hGLP-1R (Homo sapiens, UniProt P43220); test: as above; conditions: read-out: Relative cAMP EC50, hGLP-1R;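 also: intracellular cAMP rise after 30 min at 37 °C read by HTRF, normalized between buffer only (0%) and maximal control ligand (100%), four-parameter variable-slope fit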
[3] = biological target: T1, hGIPR; test: Functional cAMP activity in the presence of 1% HSA; conditions: read-out: cAMP Rel EC50, hGIPR
[4] = biological target: hGcgR (Homo sapiens, UniProt P47871); test: Functional cAMP activation in the presence of 0.1% casein (no HSA); conditions: read-out: Relative cAMP EC50, hGcgR;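 also: intracellular cAMP rise after 30 min at 37 °C, read by HTRF against a cAMP standard curve, scaled from buffer only (0%) to maximal control ligand response (100%)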
[5] = biological target: T2, hGLP-1R; test: Functional cAMP activity in the presence of 1% HSA; conditions: read-out: cAMP Rel EC50, hGLP-1R
[6] = biological target: human GcgR (Homo sapiens, UniProt P47871); test: Functional cAMP activity in the presence of 1% HSA; conditions: read-out: cAMP Rel EC50, hGcgR
[7] = in the presence of 0.1% casein (no HSA), geometric mean
[8] = 0.1% casein, no HSA, geometric mean

Sequence of hGcgR (P47871 26-477): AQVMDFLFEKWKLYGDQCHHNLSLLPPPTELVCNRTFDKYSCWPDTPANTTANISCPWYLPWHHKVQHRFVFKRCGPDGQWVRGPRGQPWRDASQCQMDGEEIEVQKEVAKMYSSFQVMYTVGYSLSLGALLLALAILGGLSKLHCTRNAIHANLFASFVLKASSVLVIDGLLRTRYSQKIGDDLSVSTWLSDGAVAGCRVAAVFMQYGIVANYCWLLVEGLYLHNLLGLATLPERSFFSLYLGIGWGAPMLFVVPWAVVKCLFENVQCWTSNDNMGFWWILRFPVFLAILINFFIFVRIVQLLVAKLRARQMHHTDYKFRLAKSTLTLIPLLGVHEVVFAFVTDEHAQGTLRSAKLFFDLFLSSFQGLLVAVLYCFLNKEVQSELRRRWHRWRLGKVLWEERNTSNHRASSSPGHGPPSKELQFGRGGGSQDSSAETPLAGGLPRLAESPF
Sequence of human GcgR (P47871 26-477): as above
T2 sequence (P43220 24-463): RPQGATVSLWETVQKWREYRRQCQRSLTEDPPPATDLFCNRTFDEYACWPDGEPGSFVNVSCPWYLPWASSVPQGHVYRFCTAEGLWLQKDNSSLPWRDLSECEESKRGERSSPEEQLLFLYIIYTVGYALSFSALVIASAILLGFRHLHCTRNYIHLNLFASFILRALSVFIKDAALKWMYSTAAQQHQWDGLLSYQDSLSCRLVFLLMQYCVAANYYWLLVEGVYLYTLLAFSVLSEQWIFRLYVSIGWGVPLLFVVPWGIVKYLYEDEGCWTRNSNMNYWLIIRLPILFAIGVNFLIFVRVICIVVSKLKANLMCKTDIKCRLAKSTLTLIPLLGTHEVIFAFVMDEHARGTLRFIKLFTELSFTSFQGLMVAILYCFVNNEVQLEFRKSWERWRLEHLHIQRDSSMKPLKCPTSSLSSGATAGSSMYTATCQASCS

Substance | EC50 [1] [pM] | EC50 [2] [nM] | EC50 [3] [nM] | EC50 [4] [nM] | EC50 [5] [nM] | EC50 [6] [nM] | EC50 [1, 7] [pM] | EC50 [2, 7] [nM] | EC50 [4, 7] [nM] | EC50 [1, 8] [pM] | EC50 [2, 8] [nM] | EC50 [4, 8] [nM]
H-Y[Aib]QGT[αMePhe(2-F)]TSD[4Pal][αMeS]I[αMeL]LD[Orn]K([γGlu-γGlu-C18 diacid])AQ[αMe4Pal]EFI[dE][αMeY]LIEGGPSSGAPPPSGSE-NH2 [Example 717] | 7.21 | 0.283 | 0.561 | 1.14 | 21.4 | 130 | – | – | – | – | – | –
H-Y[Aib]QGT[αMePhe(2-F)]TSD[4Pal][αMeS]I[αMeL]LD[Orn]K([γGlu-γGlu-C18 diacid])AQ[αMe4Pal]EFI[dE][αMeY]LIEGGPSSGEPPPSGE-NH2 [Example 1151] | – | – | 0.287 | – | 40 | 206 | 3.39 | 0.262 | 1.31 | – | – | –
H-Y[Aib]QGT[αMePhe(2-F)]TSD[4Pal][αMeS]I[αMeL]LD[Orn]K([γGlu-γGlu-C18 diacid])AQ[αMe4Pal]EFI[dE][αMeY]LIEGGPSSGEPPPSGGGE-NH2 [Example 744] | 8.44 | 0.274 | 0.488 | 1.04 | 22.1 | 111 | – | – | – | – | – | –
H-Y[Aib]QGT[αMePhe(2-F)]TSD[4Pal][αMeS]I[αMeL]LD[Orn]K([γGlu-γGlu-C18 diacid])AQ[αMe4Pal]EFI[dE][αMeY]LIEGGPSSGEPPPSGS-NH2 [Example 715] | 6.44 | 0.267 | 0.51 | 1 | 19.7 | 126 | – | – | – | – | – | –
H-Y[Aib]QGT[αMePhe(2-F)]TSD[4Pal][αMeS]I[αMeL]LD[Orn]K([γGlu-γGlu-C18 diacid])AQ[αMe4Pal]EFI[dE][αMeY]LIEGGPSSGEPPPSGSE-NH2 [Example 716] | 8.53 | 0.321 | 0.557 | 1.12 | 24.1 | 100 | – | – | – | – | – | –
H-Y[Aib]QGT[αMePhe(2-F)]TSD[4Pal][αMeS]I[αMeL]LD[Orn]K([γGlu-γGlu-C18 diacid])AQ[αMe4Pal]EFI[dE][αMeY]LVEGGPSSGAPPPSGE-NH2 [Example 1160] | – | – | 0.598 | – | 31.2 | 183 | 7.73 | 0.365 | 2.41 | – | – | –
H-Y[Aib]QGT[αMePhe(2-F)]TSD[4Pal][αMeS]I[αMeL]LD[Orn]K([γGlu-γGlu-C18 diacid])AQ[αMe4Pal]EFI[dE][αMeY]LVEGGPSSGEPPPSGE-NH2 [Example 1161] | – | – | 0.733 | – | 35.5 | 217 | 9.73 | 0.39 | 2.19 | – | – | –
H-Y[Aib]QGT[αMePhe(2-F)]TSD[4Pal][αMeS]I[αMeL]LD[Orn]K([γGlu-γGlu-C18 diacid])AQ[αMe4Pal]EFI[dE][αMeY]LVEGGPSSGEPPPSGGGE-NH2 [Example 739] | 15 | 0.348 | 0.507 | 1.59 | 27.1 | 155 | – | – | – | – | – | –
H-Y[Aib]QGT[αMePhe(2-F)]TSD[4Pal][αMeS]I[αMeL]LD[Orn]K([γGlu-γGlu-C18 diacid])AQ[αMe4Pal]EFI[dE][αMeY]LVEGGPSSGEPPPSGSE-NH2 [Example 1163] | – | – | 0.721 | – | 35.4 | 163 | 9.51 | 0.449 | 1.75 | – | – | –
H-Y[Aib]QGT[αMePhe(2-F)]TSD[4Pal][αMeS]I[αMeL]LD[Orn]K([γGlu-γGlu-C18 diacid])AQ[αMe4Pal]EFI[dE][αMeY]LVEGGPSSGEPPPSGTGE-NH2 [Example 738] | 9.91 | 0.368 | 0.64 | 1.87 | 28.2 | 162 | – | – | – | – | – | –
H-Y[Aib]QGT[αMePhe(2-F)]TSD[4Pal][αMeS]I[αMeL]LD[Orn]QAQ[αMe4Pal]EFI[dE][αMeY]LIEGGPSSGAPPPSGS-NH2 [Example 1232] | – | – | 0.00687 | – | 0.694 | 8.53 | – | – | – | 8.93 | 0.723 | 6.69
H-Y[Aib]QGT[αMePhe(2-F)]TSD[4Pal][αMeS]I[αMeL]LD[Orn]QAQ[αMe4Pal]EFI[dE][αMeY]LIEGGPSSGAPPPSGSE-NH2 [Example 1233] | – | – | 0.00988 | – | 1.06 | 9.9 | – | – | – | 12 | 1.09 | 9.48
H-Y[Aib]QGT[αMePhe(2-F)]TSD[4Pal][αMeS]I[αMeL]LD[Orn]QAQ[αMe4Pal]EFI[dE][αMeY]LVEGGPSSGAPPPSGS-NH2 [Example 1231] | – | – | 0.00994 | – | 1.22 | 17.1 | – | – | – | 14.6 | 1.23 | 15.7
H-Y[Aib]QGT[αMePhe(2-F)]TSD[4Pal][αMeS]I[αMeL]LD[Orn][Orn]([AEEA-γGlu-C18 diacid])AQ[αMe4Pal]EFI[dE][αMeY]LIEGGPSSGAPPPSGGGE-NH2 [Example 1213] | – | – | 0.616 | – | 44 | 268 | – | – | – | 7.21 | 0.423 | 1.69
H-Y[Aib]QGT[αMePhe(2-F)]TSD[4Pal][αMeS]I[αMeL]LD[Orn][Orn]([AEEA-γGlu-C18 diacid])AQ[αMe4Pal]EFI[dE][αMeY]LIEGGPSSGAPPPSGS-NH2 [Example 1211] | – | – | 0.489 | – | 33.2 | 211 | – | – | – | 5.92 | 0.276 | 1.45
H-Y[Aib]QGT[αMePhe(2-F)]TSD[4Pal][αMeS]I[αMeL]LD[Orn][Orn]([AEEA-γGlu-C18 diacid])AQ[αMe4Pal]EFI[dE][αMeY]LIEGGPSSGAPPPSGSE-NH2 [Example 1212] | – | – | 0.614 | – | 38.2 | 230 | – | – | – | 7.02 | 0.357 | 1.71
H-Y[Aib]QGT[αMePhe(2-F)]TSD[Phe(4-CN)]SILLDKQAQK([AEEA-AEEA-γGlu-C20 diacid])AFIEYLLEGGPSSGEPPPSAG-NH2 [Example 350] | – | – | 33.6 | – | 360 | 3760 | 106 | 0.776 | 10.4 | – | – | –
H-Y[Aib]QGT[αMePhe(2-F)]TSD[Phe(4-CN)]SILLDKQAQK([AEEA-AEEA-γGlu-C20 diacid])AFIQYLLEGGPSSGEPPPSEG-NH2 [Example 353] | – | – | 53.7 | – | 222 | 3080 | 127 | 0.634 | 11 | – | – | –
H-Y[Aib]QGT[αMePhe(2-F)]TSD[Phe(4-CN)]SILLDKQAQK([AEEA-γGlu-C20 diacid])AFIQYLLEGGPSSGEPPPSEG-NH2 [Example 341] | – | – | 49.6 | – | 395 | 2930 | 213 | 1.62 | 10.7 | – | – | –
H-Y[Aib]QGT[αMePhe(2-F)]TSD[Phe(4-CN)]SILLDKQAQK([AEEA-γGlu-γGlu-C20 diacid])AFIEYLLEGGPSSGEPPPSEG-NH2 [Example 352] | – | – | 34.1 | – | 407 | 4020 | 245 | 0.967 | 16.4 | – | – | –
